# Data: patent publication US4822778A, “Membrane stabilizing phenoxy-piperidine compounds and pharmaceutical compositions employing such compounds” (Aberg; Gunnar, priority 1988, dated 1989)
# Tests used:
# guinea pigs = assay: Infiltration anesthetic effects, intracutaneous injection in guinea pigs; format: in vivo; settings: 0.2 ml of 0.5% by weight solution
# Method: 1. […] A. Infiltration anesthetic effects: The effects of the new compounds were tested according to Aberg & […], Acta Anaesth.
# sciatic nerve = assay: Nerve blocking effects in rats in vivo; settings: 0.25 ml of 0.5% by weight solution
# Method: B. Nerve blocking effects. The tests were carried out in vivo in rats after injection of 0.25 ml of the test solutions close to the sciatic nerve.
# in vivo = settings: mouse, sc
# [1] = Convulsive and lethal doses in rats, intravenous infusion; format: in vivo; settings: rat, in vivo, iv; male rats, i.v. at 1.0 mg/kg/min; read-out: Convulsive dose
# Method: (§1) Convulsive doses and lethal doses after intravenous administration for selected compounds of the invention and for Bupivacaine are shown in Table 3 below.
# (§2) Convulsive and lethal doses of selected compounds
# (§3) administered intravenously at 1.0 mg/kg/min to rats (male;
# rats = assay: as above; format: in vivo; settings: male rats, i.v. at 1.0 mg/kg/min
# Method: as §1, §2, §3
# rabbit cornea = assay: Topical anesthetic effects, corneal test in rabbits in vivo; settings: 0.25 ml
# Method: C. Topical anesthetic effects. Corneal tests were carried out in rabbits in vivo according to Henn.
# cynomolgus monkeys = assay: Spinal anesthetic effects in monkeys, intrathecal injection; format: in vivo; settings: intrathecal 1.0 ml
# Method: D. Spinal Anesthetic Effects.
# Spinal anesthetsias were performed on cynomolgus monkeys that had been sedated with ketamine (6 mg/kg; i.m.). 1.0 ml of the test solutions were injected intrathecally and the durations were tested every ten (10) minutes with forceps. The duration of motoric blockade was calculated as the time until the hind leg paralysis ceased.
# ventricular arrhythmias = assay: Antiarrhythmic effects, ouabain-induced ventricular arrhythmias in anesthetized dogs; format: in vivo; settings: i.v.
# Method: 2. Antiarrhythmic effects.
# Ventricular arrhythmias were induced in anesthetized dogs by intravenous injection of ouabain: initially 40 μg/kg bodyweight and thereafter 20 μg/kg bodyweight every 20 minutes until the ventricular arrhythmia was regarded as manifest. Lidocaine was also tested by the same procedure. The new compounds were compared with lidocaine, a known antiarrhythmic compound.
# lingomandibular reflex = assay: Interneuronblocking effects, lingomandibular reflex in anesthetized cats; format: in vivo, cats (female; 2.5-3.5 kg)
# Method: 3. Interneuronblocking effects.
# Tests were carried out in anesthetized cats (female; 2.5-3.5 kg bodyweight). The effects of the compounds were studied on the lingomandibular reflex, which was provoked by means of electrical stimulation of the tongue. The mandibular reflux was registered from a transducer connected to the mandible. Phenyramidole was tested by the same procedure. As evident from the results shown in Table 8, the compound according to Example 2 of the invention is 10 times as potent as phenyramidole.
Structure (SMILES),Infiltration anesthesia duration (guinea pigs),"Nerve blocking effect, Motoric blockade (sciatic nerve)","Nerve blocking effect, Sensoric blockade (sciatic nerve)",LD50 (in vivo),TD50 [1],Lethal dose (rats),"Topical anesthetic effect, Duration (rabbit cornea; concentration 1.0%)","Topical anesthetic effect, Onset frequency (rabbit cornea; concentration 1.0%)",Duration of regularization (ventricular arrhythmias; 1 mg/kg),further results
Cc1ccc(C)c(OCC2CCCCN2C)c1 (centres unmarked) [Example 9],25 min,75 min,95 min,400 mg/kg,,,,,,
"CCCN1CCCCC1COc1c(C)cccc1C (centres unmarked) [Example 6, N-(n-propyl)-2-[(2,6-xyloxy)methyl]piperidine]",175 min,145 min,155 min,200 mg/kg,11 mg/kg,20 mg/kg,24 ± 2 min,9/9,4 min,"Duration, Anal Blockade (cynomolgus monkeys; 3.0% by wt.): > 291 min; Duration, Digital Blockade (cynomolgus monkeys; 3.0% by wt.): 222 min; Duration, Motor Blockade (cynomolgus monkeys; 3.0% by wt.): > 198 min"
Cc1cccc(C)c1OCC1CCCCN1CCO (centres unmarked) [Example 12],40 min,95 min,95 min,220 mg/kg,,,,,,
"CCCCN1CCCCC1COc1c(C)cccc1C (centres unmarked) [Example 7, N-(n-butyl)-2-[(2,6-xyloxy)methyl]piperidine]",165 min,140 min,160 min,225 mg/kg,16 mg/kg,24 mg/kg,27 ± 4 min,10/10,4 min,
"CCCCN1CCCCC1C(=O)Nc1c(C)cccc1C (centres unmarked) [Bupivacaine, reference compound]",,,,50 mg/kg,9 mg/kg,13 mg/kg,,,,
Cc1ccccc1OCC1CCCCN1C (centres unmarked) [Example 11],55 min,60 min,85 min,300 mg/kg,,,,,,
"CC1CCCC(C)C1OCC1CCCCN1 (centres unmarked) [Example 3, 2-[(2,6-dimethylcyclohexyloxy)methyl]piperidine]",35 min,0 min,0 min,180 mg/kg,,,,,,
"OC(CNc1ccccn1)c1ccccc1 (centres unmarked) [Phenyramidole, reference compound]",,,,,,,,,,"inhibition at 2.5 mg/kg (lingomandibular reflex; Felis catus, iv, 2.5 mg/kg bodyweight, read-out: Maximal inhibition): 40%; inhibition at 5 mg/kg (lingomandibular reflex; Felis catus, iv, 5.0 mg/kg bodyweight, read-out: Maximal inhibition): 80%; inhibition at 10 mg/kg (lingomandibular reflex; Felis catus, iv, 10.0 mg/kg bodyweight, read-out: Maximal inhibition): 100%; Duration of inhibition (lingomandibular reflex; i.v., 2.5 mg/kg bodyweight): 5 min; Duration of inhibition (lingomandibular reflex; i.v., 5.0 mg/kg bodyweight): 20 min; Duration of inhibition (lingomandibular reflex; i.v., 10.0 mg/kg bodyweight): 60 min"
"CCN(CC)CC(=O)Nc1c(C)cccc1C [Lidocaine, reference compound]",25 min,40 min,35 min,,,,,,2 min,"Topical anesthetic effect, Duration (rabbit cornea; concentration 4.0%): 23 ± 3 min; Topical anesthetic effect, Onset frequency (rabbit cornea; concentration 4.0%): 10/10; Duration, Anal Blockade (cynomolgus monkeys; 5.0% by wt.): 150 min; Duration, Digital Blockade (cynomolgus monkeys; 5.0% by wt.): 88 min; Duration, Motor Blockade (cynomolgus monkeys; 5.0% by wt.): 73 min; Duration of regularization (ventricular arrhythmias; 2 mg/kg): 4 min"
Cc1ccc(OCC2CCCCN2C)c(C)c1 (centres unmarked) [Example 8],35 min,55 min,75 min,400 mg/kg,,,,,,
CN1CCCCC1COc1ccccc1 (centres unmarked) [Example 10],35 min,25 min,40 min,150 mg/kg,,,,,,
"Cc1cccc(C)c1OCC1CCCCN1 (centres unmarked) [Example 1, 2-[(2,6-xyloxy)methyl]piperidine]",40 min,75 min,90 min,110 mg/kg,22 mg/kg,50 mg/kg,24 ± 4 min,9/10,5 min,Duration of regularization (ventricular arrhythmias; 2 mg/kg): 10 min
"CCN1CCCCC1COc1c(C)cccc1C (centres unmarked) [Example 5, N-ethyl-2-[(2,6-xyloxy)-methyl]piperidine]",70 min,90 min,115 min,200 mg/kg,15 mg/kg,41 mg/kg,18 ± 3 min,9/10,3 min,"Duration, Anal Blockade (cynomolgus monkeys; 3.0% by wt.): 258 min; Duration, Digital Blockade (cynomolgus monkeys; 3.0% by wt.): 163 min; Duration, Motor Blockade (cynomolgus monkeys; 3.0% by wt.): 178 min"
CC1CCCC(C)C1OCC1CCCCN1C (centres unmarked) [Example 4],60 min,65 min,80 min,350 mg/kg,,,,,,
"Cc1cccc(C)c1OCC1CCCCN1C.Cl (centres unmarked) [Example 2, N-methyl-2-[(2,6-xyloxy)methyl]-piperidine hydrochloride]",120 min,110 min,135 min,260 mg/kg,10 mg/kg,33 mg/kg,14 ± 4 min,7/10,2 min,"Duration of regularization (ventricular arrhythmias; 2 mg/kg): 4 min; inhibition at 0.25 mg/kg (lingomandibular reflex; Felis catus, iv, 0.25 mg/kg bodyweight, read-out: Maximal inhibition): 30%; inhibition at 0.5 mg/kg (lingomandibular reflex; Felis catus, iv, 0.50 mg/kg bodyweight, read-out: Maximal inhibition): 80%; inhibition at 1 mg/kg (lingomandibular reflex; Felis catus, iv, 1.00 mg/kg bodyweight, read-out: Maximal inhibition): 100%; Duration of inhibition (lingomandibular reflex; i.v., 0.25 mg/kg bodyweight): 10 min; Duration of inhibition (lingomandibular reflex; i.v., 0.50 mg/kg bodyweight): 20 min; Duration of inhibition (lingomandibular reflex; i.v., 1.00 mg/kg bodyweight): 45 min; Potency relative to phenyramidole (lingomandibular reflex; i.v., compared with phenyramidole): 10 times"
